Data reported in the supplement of paper PMC11061612.

Key:
[1] = tested on: TE-4 (Esophageal Squamous Cell Carcinoma); test: Bliss excess, mean over the matrix (fraction); higher = more synergy
In short: (§1)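 Cell lines grown in DMEM/F12 or RPMI with 10% FBS were plated in 1536-well plates and held 24 hours at 37°C, 5% CO2 before 72 hours of exposure to two-drug dose matrices, with DMSO typically at 0.2%. CellTiter-Glo 2.0 luminescence gave viability, which was converted to inhibition. Vehicle wells were set to 0 and blank wells to 1. Combination Emax is the second-highest inhibition in the matrix, and Bliss excess is the observed combination effect minus the expected EA + EB − EA·EB, where EA and EB are the single-agent effects.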

[2] = tested on: CAPAN-1 (Pancreatic Carcinoma); test: as above
In short: as §1

NB14 (Neuroblastoma) = test: as above
In short: as §1

[3] = tested on: LU-139 (Small Cell Lung Carcinoma); test: as above
In short: as §1

[4] = tested on: SW626 (Colorectal Carcinoma); test: as above
In short: as §1

[5] = tested on: OC-314 (Ovarian Carcinoma); test: as above
In short: as §1

[6] = tested on: K5 (Thyroid Gland Carcinoma); test: as above
In short: as §1

[7] = tested on: SW1271 (Small Cell Lung Carcinoma); test: as above
In short: as §1

[8] = tested on: SUP-T1 (T-Lymphoblastic Leukemia); test: as above
In short: as §1

[9] = tested on: MHH-PREB-1 (B-Cell Non-Hodgkin's Lymphoma); test: as above
In short: as §1

[10] = tested on: NCI-H69 (Small Cell Lung Carcinoma); test: as above
In short: as §1

COLO-829 (Melanoma) = test: as above
In short: as §1

[11] = tested on: HDLM-2 (Hodgkin's Lymphoma); test: as above
In short: as §1

NCI-H2795 (Mesothelioma) = test: as above
In short: as §1

[12] = tested on: RT-112 (Bladder Carcinoma); test: as above
In short: as §1

[13] = tested on: RKO (Colorectal Carcinoma); test: as above
In short: as §1

[14] = tested on: SW1116 (Colorectal Carcinoma); test: combination Emax (second highest fraction inhibited in the dose matrix, 72 h); higher = more inhibition; extreme values may be limits of the assay
In short: as §1

Mewo (Melanoma) = test: as above
In short: as §1

[15] = tested on: CAPAN-1 (Pancreatic Carcinoma); test: as above
In short: as §1

[16] = tested on: KARPAS-231 (B-Cell Non-Hodgkin's Lymphoma); test: as above
In short: as §1
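Wherever Bliss excess, mean over the matrix is given: after 72 h of two-drug dosing.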

SMILES | Bliss excess [1] | Bliss excess [2] | Bliss excess (NB14 (Neuroblastoma)) | Bliss excess [3] | Bliss excess [4] | Bliss excess [5] | Bliss excess [6] | Bliss excess [7] | Bliss excess [8] | Bliss excess [9] | Bliss excess [10] | Bliss excess (COLO-829 (Melanoma)) | Bliss excess [11] | Bliss excess (NCI-H2795 (Mesothelioma)) | Bliss excess [12] | Bliss excess [13] | combination Emax [14] | combination Emax (Mewo (Melanoma)) | combination Emax [15] | combination Emax [16]
CC1(C)CCC(CN2CCN(c3ccc(C(=O)NS(=O)(=O)c4ccc(NCC5CCOCC5)c([N+](=O)[O-])c4)c(Oc4cnc5[nH]ccc5c4)c3)CC2)=C(c2ccc(Cl)cc2)C1 [Venetoclax] + CCN(CCO)CCCOc1ccc2c(Nc3cc(CC(=O)Nc4cccc(F)c4)[nH]n3)ncnc2c1 [AZD2811] (first compound max 1 µM, 7x7, partner max 1 µM) | -0.005 | -0.042 | -0.0361 | 0.0596 | -0.0394 | -0.0071 | -0.0231 | -0.0483 | -0.0012 | -0.0052 | 0.0928 | -0.0359 | 0.106 | -0.0581 | 0.045 | 0.0096 | 0.202 | 0.434 | 0.206 | 1
Cc1c2c(nn1C)CSCc1cc(n(C)n1)CSc1cc(c3ccccc3c1)OCCCc1c(C(=O)O)n(C)c3c-2c(Cl)ccc13 [AZD5991] + C1CN(CCC1(C(=O)N[C@@H](CCO)C2=CC=C(C=C2)Cl)N)C3=NC=NC4=C3C=CN4 [Capivasertib] (first compound max 1 µM, 7x7, partner max 3 µM) | 0.0626 | -0.0318 | 0.0283 | -0.0056 | -0.018 | 0.0362 | -0.021 | -0.0664 | -0.0218 | -0.0283 | -0.026 | -0.0212 | 0.0369 | 0.119 | 0.0563 | 0.0296 | 0.102 | 0.199 | 0.203 | 1
CN(CCO)CC[C@H](CSc1ccccc1)Nc1ccc(S(=O)(=O)NC(=O)c2ccc(N3CCC([C@@H](O)c4ccccc4-c4ccc(Cl)cc4)CC3)cc2)cc1S(=O)(=O)C(F)(F)F [AZD4320] + CCN(CCO)CCCOc1ccc2c(Nc3cc(CC(=O)Nc4cccc(F)c4)[nH]n3)ncnc2c1 [AZD2811] (first compound max 1 µM, 7x7, partner max 1 µM) | -0.0186 | -0.0309 | 0 | 0.0775 | 0.0278 | 0.156 | -0.0283 | -0.0428 | 0.0933 | 0.0034 | 0.035 | -0.0465 | 0.0781 | 0.0386 | 0.172 | -0.0162 | 0.144 | 0.303 | 0.336 | 1
COc1cccc(OCCCN)c1-c1cc(Nc2cnc(C#N)cn2)n[nH]1 [Prexasertib] + CCc1c2c(nc3ccc(O)cc13)-c1cc3c(c(=O)n1C2)COC(=O)[C@]3(O)CC [SN-38] (first compound max 1 µM, 7x7, partner max 0.3 µM) | 0.107 | -0.0624 | 0.0073 | -0.0118 | -0.0156 | 0.0061 | -0.0708 | -0.088 | -0.152 | 0.0153 | 0.162 | 0.0036 | -0.0701 | -0.106 | 0.104 | -0.0686 | 0.763 | 0.721 | 0.809 | 1
CN(CCO)CC[C@H](CSc1ccccc1)Nc1ccc(S(=O)(=O)NC(=O)c2ccc(N3CCC([C@@H](O)c4ccccc4-c4ccc(Cl)cc4)CC3)cc2)cc1S(=O)(=O)C(F)(F)F [AZD4320] + Cc1cc2ncnn2cc1Nc1ncc2c(n1)n(C1CCOCC1)c(=O)n2C [AZD7648] (first compound max 1 µM, 7x7, partner max 10 µM) | -0.0202 | -0.0508 | 0.0356 | 0.0151 | -0.0526 | -0.0394 | -0.0105 | -0.0386 | -0.0222 | -0.0041 | -0.0474 | -0.04 | -0.0018 | -0.0395 | 0.0058 | -0.0148 | 0.117 | 0.194 | 0.161 | 1
Cc1cc2ncnn2cc1Nc1ncc2c(n1)n(C1CCOCC1)c(=O)n2C [AZD7648] + C[C@@H]1COCCN1C2=NC(=NC(=C2)C3(CC3)[S@](=N)(=O)C)C4=C5C=CNC5=NC=C4 [AZD6738] (first compound max 10 µM, 7x7, partner max 10 µM) | 0.054 | 0.0322 | -0.0026 | 0.0121 | 0.0302 | 0.0565 | 0.0129 | 0.0274 | 0.0052 | 0.0336 | -0.0348 | -0.0088 | -0.0357 | 0.0603 | 0.0746 | 0.0059 | 0.267 | 0.5 | 0.495 | 0.837
CCN(CCO)CCCOc1ccc2c(Nc3cc(CC(=O)Nc4cccc(F)c4)[nH]n3)ncnc2c1 [AZD2811] + O=C(c1cc(Cc2n[nH]c(=O)c3ccccc23)ccc1F)N1CCN(C(=O)C2CC2)CC1 [Olaparib] (first compound max 1 µM, 7x7, partner max 10 µM) | 0.0049 | -0.0091 | -0.0384 | -0.0495 | -0.0134 | 0.0254 | 0.0162 | -0.0312 | 0.0208 | 0.0032 | -0.0259 | 0.0233 | -0.0224 | 0.052 | 0.0427 | 0.0655 | 0.223 | 0.226 | 0.338 | 0.576
COc1cccc(OCCCN)c1-c1cc(Nc2cnc(C#N)cn2)n[nH]1 [Prexasertib] + C=CCn1c(=O)c2cnc(Nc3ccc(N4CCN(C)CC4)cc3)nc2n1-c1cccc(C(C)(C)O)n1 [AZD1775] (first compound max 1 µM, partner max 1 µM) | 0.0905 | -0.0069 | 0.0486 | 0.0089 | 0.0304 | 0.0884 | 0.0807 | 0.0019 | -0.0504 | 0.0729 | 0.151 | -0.0067 | -0.0404 | 0.0221 | 0.119 | 0.0521 | 0.63 | 0.599 | 0.577 | 0.989
CS(=O)(=O)CCNCc1ccc(-c2ccc3ncnc(Nc4ccc(OCc5cccc(F)c5)c(Cl)c4)c3c2)o1 [Lapatinib] + C[C@@H](Oc1cc(-c2cnn(C3CCNCC3)c2)cnc1N)c1c(Cl)ccc(F)c1Cl [Crizotinib] (first compound max 10 µM, 7x7, partner max 10 µM) | 0.0198 | -0.0937 | -0.0338 | -0.0147 | -0.0681 | -0.0479 | -0.0213 | -0.03 | -0.0469 | -0.0164 | -0.0303 | -0.0345 | -0.0545 | -0.0569 | 0.0155 | -0.0977 | 0.688 | 0.537 | 0.527 | 0.57
Cc1cc2ncnn2cc1Nc1ncc2c(n1)n(C1CCOCC1)c(=O)n2C [AZD7648] + CCN(CCO)CCCOc1ccc2c(Nc3cc(CC(=O)Nc4cccc(F)c4)[nH]n3)ncnc2c1 [AZD2811] (first compound max 10 µM, 7x7, partner max 1 µM) | 0.0096 | -0.0304 | -0.0603 | 0.0273 | -0.0688 | 0.0565 | 0.0013 | -0.0081 | 0.11 | 0.0617 | 0.0296 | -0.0034 | -0.0457 | 0.009 | 0.0796 | 0.0369 | 0.249 | 0.259 | 0.299 | 0.517
CC1(C)CCC(CN2CCN(c3ccc(C(=O)NS(=O)(=O)c4ccc(NCC5CCOCC5)c([N+](=O)[O-])c4)c(Oc4cnc5[nH]ccc5c4)c3)CC2)=C(c2ccc(Cl)cc2)C1 [Venetoclax] + C=CCn1c(=O)c2cnc(Nc3ccc(N4CCN(C)CC4)cc3)nc2n1-c1cccc(C(C)(C)O)n1 [AZD1775] (first compound max 1 µM, partner max 1 µM) | -0.0529 | -0.0443 | 0.0967 | 0.0207 | -0.0676 | 0.1 | -0.0279 | 0.0381 | 0.0425 | -0.0328 | -0.0251 | -0.012 | 0.0749 | 0.0657 | 0.0891 | 0.0487 | 0.23 | 0.621 | 0.45 | 1
NC1(C(=O)N[C@@H](CCO)c2ccc(Cl)cc2)CCN(c2ncnc3[nH]ccc23)CC1 [Capivasertib] + COc1nnc2ccc(N3CCC(c4ccc(OCCN5CCN(C)C(=O)[C@H]5C)cc4)CC3)nn12 [AZD5153] (first compound max 10 µM, 7x7, partner max 1 µM) | 0.0684 | -0.0045 | -0.0216 | -0.0574 | -0.0156 | -0.0135 | 0.0159 | 0.0529 | -0.0296 | -0.0154 | 0.019 | 0.011 | -0.0507 | -0.0197 | 0.0334 | 0.0048 | 0.245 | 0.433 | 0.358 | 0.229
COc1cccc2c1C(=O)c1c(O)c3c(c(O)c1C2=O)C[C@@](O)(C(=O)CO)C[C@@H]3O[C@H]1C[C@H](N)[C@H](O)[C@H](C)O1 [Doxorubicin] + Cc1cc2ncnn2cc1Nc1ncc2c(n1)n(C1CCOCC1)c(=O)n2C [AZD7648] (first compound max 1 µM, 7x7, partner max 10 µM) | -0.0039 | 0.0038 | 0.0203 | 0.0476 | 0.0033 | 0.105 | 0.0319 | 0.0452 | 0.0368 | 0.0891 | 0.0064 | 0.0212 | 0.0106 | 0.0227 | 0.151 | 0.0473 | 0.146 | 0.599 | 0.511 | 0.956
CN(C)CCCOc1ccc(-c2ccc3ncc4c(c3c2)n(C2CCOCC2)c(=O)n4C)cn1 [AZD0156] + CCN(CCO)CCCOc1ccc2c(Nc3cc(CC(=O)Nc4cccc(F)c4)[nH]n3)ncnc2c1 [AZD2811] (first compound max 1 µM, 7x7, partner max 1 µM) | -0.0129 | -0.0635 | -0.0955 | -0.0441 | -0.0392 | 0.0078 | -0.0334 | -0.0322 | 0.0321 | 0.0053 | 0.0012 | -0.0587 | -0.0208 | 0.0025 | -0.0098 | 0.014 | 0.0823 | 0.153 | 0.137 | 0.563
